The test system of one assay is PaLPMO9H. The assay can be described thus: AA7-LPMO synergy assay with PaLPMO9H on PASC or Avicel (HPAEC-PAD). In kind it is biochemical, Podospora anserina.
In assay [1] the target is T1, PsAA7A, Phytophthora sojae, SEQ ID NO: 7 (Table 2: SEQ ID NO: 37) (Phytophthora sojae, UniProt G4YI39).
T1 sequence (G4YI39 23-504): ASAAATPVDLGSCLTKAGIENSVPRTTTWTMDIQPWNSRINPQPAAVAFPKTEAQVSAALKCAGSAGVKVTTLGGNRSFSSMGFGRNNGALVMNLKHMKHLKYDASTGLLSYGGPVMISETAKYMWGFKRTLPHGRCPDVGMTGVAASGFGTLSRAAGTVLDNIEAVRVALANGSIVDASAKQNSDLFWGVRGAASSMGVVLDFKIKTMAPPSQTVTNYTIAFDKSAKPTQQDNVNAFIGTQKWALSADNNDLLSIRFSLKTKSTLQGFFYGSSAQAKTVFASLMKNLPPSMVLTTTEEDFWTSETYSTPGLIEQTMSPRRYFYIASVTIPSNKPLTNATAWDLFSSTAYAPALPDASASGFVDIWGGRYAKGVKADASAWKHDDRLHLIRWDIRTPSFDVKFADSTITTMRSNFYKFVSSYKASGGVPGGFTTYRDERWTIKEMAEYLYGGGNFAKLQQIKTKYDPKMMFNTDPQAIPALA
Format: biochemical.

The target of assay [2] is T1, PsAA7A, Phytophthora sojae, SEQ ID NO: 7 (Table 2: SEQ ID NO: 37). In kind it is biochemical. The source holds these as a separate data set.
The test system of assay [3] is FgAA7D, Fusarium graminearum PH-1, SEQ ID NO: 113. Format: biochemical. The following applies: 150 nM enzyme, 10 mM cellobiose.
Assay [4] concerns the target T2, FgCelDH7C, Fusarium graminearum PH-1, SEQ ID NO: 1 (Table 2: SEQ ID NO: 31) (Fusarium graminearum, UniProt I1RWY4). In kind it is biochemical. To be noted: oxidase assay, 20 mM cellobiose; for V0/E: estimated.
Assay [5] concerns the target T2, FgCelDH7C, Fusarium graminearum PH-1, SEQ ID NO: 1 (Table 2: SEQ ID NO: 31). To be noted: dehydrogenase assay, 0.1 mM DCIP, 0.1 μM enzyme, 50 mM HEPES pH 7.0, FgCelDH7C.
In assay [6] the target is T3, MoChiO7A, Magnaporthe (anamorph Pyricularia) oryzae 70-15, SEQ ID NO: 21 (Table 2: SEQ ID NO: 35) (Pyricularia oryzae, UniProt G4NAH7). To be noted: oxidase assay, 50 mM NaOAc pH 5.2, MoChiO7A.
Assay [7] addresses T4, FgChiO7B, Fusarium graminearum, SEQ ID NO: 20 (Table 2: SEQ ID NO: 33) (Fusarium graminearum, UniProt A0ACM8RFH6). To be noted: dehydrogenase assay, 0.1 mM DCIP, 0.1 μM enzyme, 50 mM HEPES pH 7.0, FgChiO7B.
For assay [8], the target named is T3, MoChiO7A, Magnaporthe (anamorph Pyricularia) oryzae 70-15, SEQ ID NO: 21 (Table 2: SEQ ID NO: 35). The following applies: dehydrogenase assay, 0.1 mM DCIP, 0.1 μM enzyme, 50 mM HEPES pH 7.0, MoChiO7A.
Assay [9] concerns the target T4, FgChiO7B, Fusarium graminearum, SEQ ID NO: 20 (Table 2: SEQ ID NO: 33). The following applies: oxidase assay, 50 mM NaOAc pH 5.2, FgChiO7B.
The format of assay [10] is biochemical. The following applies: GalA; V0/E values.

“Also recorded” adds a separate entry of the source. Read-outs that look alike come from different tables or passages of the source.

The source of these data is patent US12630806B2 (priority 2020, dated 2026).

On to `O=C1C=CC(=Nc2cc(Cl)c(O)c(Cl)c2)C=C1` [DCIP, 2,6-dichlorophenolindophenol], for which the “synergy with PaLPMO9H: released cello-oligosaccharides from PASC” value in the assay with PaLPMO9H is recorded as “inhibited the observed synergy”.

As for `O=C(O)[C@H]1OC(O)[C@H](O)[C@@H](O)[C@H]1O` (some centres unmarked) [GalA, galacturonic acid], in assay [1], the V0/E was 1.7E−4^d s^−1 and the “oxidase activity estimated from the linear segments after the initial delayed burst” value was 1.7±0.6 ×10^−4 s^−1. Also, in assay [2], the “dehydrogenase activity (V0/E)” value came out at 6.4 s⁻¹.

Take `OC[C@H]1O[C@@H](O[C@H]2[C@H](O)[C@@H](O)C(O)O[C@@H]2CO)[C@H](O)[C@@H](O)[C@@H]1O` (some centres unmarked) [Cellobiose, cellobiose]: the Estimated oxidase activity in [3] is 0.001 s⁻¹. In addition, the “normalized rate (slope of linear region/E), initial burst” value in [4] (150 μM enzyme) amounted to 0.00029 s⁻¹; in assay [4] (500 μM enzyme) it was 0.00013 s⁻¹. Besides, the “reaction rate, second phase” value came to 7e-05 s⁻¹ in [4] (150 μM enzyme) and 4.1e-05 s⁻¹ in [4] (500 μM enzyme). Besides, the V0/E entry is “(2.93E−4^c) s^−1” in assay [4] (150 uM enzyme) and 1.29E−4^b s^−1 in assay [4] (500 uM enzyme). In addition, the kcat (commonly the maximal rate divided by the concentration of active sites) in assay [5] was 30.8 ± 0.81 s⁻¹.

On to `CC(=O)N[C@H]1C(O)O[C@H](CO)[C@H](O)[C@@H]1O` (some centres unmarked) [GalNAc], for which the kcat in [6] worked out at 3.67 ± 0.06 s⁻¹.

Turning to `CC(=O)N[C@H]1[C@H](O[C@H]2[C@H](O)[C@@H](NC(C)=O)C(O)O[C@@H]2CO)O[C@H](CO)[C@@H](O)[C@@H]1O` (some centres unmarked) [Chitobiose, chitobiose], the kcat is 29.3 ± 0.41 s⁻¹ in assay [7], 22.4 ± 0.5 s⁻¹ in assay [8], 2.27 ± 0.03 s⁻¹ in [9] and 4.37 ± 0.12 s⁻¹ in assay [6].

On to `CC(=O)N[C@H]1C(O)O[C@H](CO)[C@@H](O)[C@@H]1O` (some centres unmarked) [GlcNAc], for which the figures for the kcat in [9] and in assay [6] were 6.76 ± 0.31 s⁻¹ and 3.8 ± 0.07 s⁻¹, respectively.

For the molecule `CC(=O)N[C@H]1[C@H](O[C@H]2[C@H](O)[C@@H](NC(C)=O)C(O)O[C@@H]2CO)O[C@H](CO)[C@@H](O[C@@H]2O[C@H](CO)[C@@H](O)[C@H](O)[C@H]2NC(C)=O)[C@@H]1O` (some centres unmarked) [Chitotriose, chitotriose], the kcat in assay [9] amounted to 6.14 ± 0.29 s⁻¹; in assay [6], 3.71 ± 0.09 s⁻¹.

Turning to `OC[C@H]1O[C@@H](O[C@H]2[C@H](O)[C@@H](O)[C@H](O[C@H]3[C@H](O)[C@@H](O)[C@H](O[C@H]4[C@H](O)[C@@H](O)C(O)O[C@@H]4CO)O[C@@H]3CO)O[C@@H]2CO)[C@H](O)[C@@H](O)[C@@H]1O` (some centres unmarked) [Cellotetraose, cellotetraose], in [5], the kcat is 39.2 ± 0.76 s⁻¹.

Regarding `OC[C@H]1O[C@@H](O[C@H]2[C@H](O)[C@@H](O)[C@H](O[C@H]3[C@H](O)[C@@H](O)C(O)O[C@@H]3CO)O[C@@H]2CO)[C@H](O)[C@@H](O)[C@@H]1O` (some centres unmarked) [Cellotriose, cellotriose], the kcat in [5] is 36.1 ± 0.74 s⁻¹.

B1: PsAA7A: AA7 clade IIb enzyme from Phytophthora sojae, active on glucuronic and galacturonic acid (protein, listed as Phytophthora sojae)
chain: MVSSASSAIFALCSLIAAQSGLASAAATPVDLGSCLTKAGIENSVPRTTTWTMDIQPWNSRINPQPAAVAFPKTEAQVSAALKCAGSAGVKVTTLGGNRSFSSMGFGRNNGALVMNLKHMKHLKYDASTGLLSYGGPVMISETAKYMWGFKRTLPHGRCPDVGMTGVAASGFGTLSRAAGTVLDNIEAVRVALANGSIVDASAKQNSDLFWGVRGAASSMGVVLDFKIKTMAPPSQTVTNYTIAFDKSAKPTQQDNVNAFIGTQKWALSADNNDLLSIRFSLKTKSTLQGFFYGSSAQAKTVFASLMKNLPPSMVLTTTEEDFWTSETYSTPGLIEQTMSPRRYFYIASVTIPSNKPLTNATAWDLFSSTAYAPALPDASASGFVDIWGGRYAKGVKADASAWKHDDRLHLIRWDIRTPSFDVKFADSTITTMRSNFYKFVSSYKASGGVPGGFTTYRDERWTIKEMAEYLYGGGNFAKLQQIKTKYDPKMMFNTDPQAIPALA
modifications: peptide (1)..(504) PsAA7A from Phytophthora sojae - an AA7 enzyme belonging to clade IIb
For B1, the “synergy to LPMO catalyzed degradation of avicel” value in the assay on PaLPMO9H (Avicel 0.5% (w/v), 35° C., 24 h, PaLPMO9H, AA7 with its substrate (cellotetraose or galacturonic acid 0.8 mM)) is given as “does not (or does only with a far lower extent) confer synergy”. Further, the dehydrogenase/oxidase ratio result in assay [10] is “about 4×10^4”.

B2: HRP: horseradish peroxidase, captures H2O2 (protein, UniProt P00433 31-338, looked up)
Peroxidase C1A: QLTPTFYDNSCPNVSNIVRDTIVNELRSDPRIAASILRLHFHDCFVNGCDASILLDNTTSFRTEKDAFGNANSARGFPVIDRMKAAVESACPRTVSCADLLTIAAQQSVTLAGGPSWRVPLGRRDSLQAFLDLANANLPAPFFTLPQLKDSFRNVGLNRSSDLVALSGGHTFGKNQCRFIMDRLYNFSNTGLPDPTLNTTYLQTLRGLCPLNGNLSALVDFDLRTPTIFDNKYYVNLEEQKGLIQSDQELFSSPNATDTIPLVRSFANSTQTFFNAFVEAMDRMGNITPLTGTQGQIRLNCRVVNSNS
B2: the “effect of additive on PaLPMO9H-FgCelDH7C synergy / LPMO activity” value in the assay on PaLPMO9H (Avicel, 18 h at 35° C., HRP or SOD added) is reported as “inhibitory of the LPMO activity; also recorded: abolished the activity”.
